The text below walks through data of patent US20230174523A1, “BENZENESULFONAMIDE DERIVATIVES AS TRAP1 MODULATORS AND USES THEREOF” (Amathus Therapeutics, Inc., priority 2020, published 2023).

The target in one assay is T1, TRAP1 enzyme (Homo sapiens, UniProt Q12931).
T1 sequence (Q12931 60-704): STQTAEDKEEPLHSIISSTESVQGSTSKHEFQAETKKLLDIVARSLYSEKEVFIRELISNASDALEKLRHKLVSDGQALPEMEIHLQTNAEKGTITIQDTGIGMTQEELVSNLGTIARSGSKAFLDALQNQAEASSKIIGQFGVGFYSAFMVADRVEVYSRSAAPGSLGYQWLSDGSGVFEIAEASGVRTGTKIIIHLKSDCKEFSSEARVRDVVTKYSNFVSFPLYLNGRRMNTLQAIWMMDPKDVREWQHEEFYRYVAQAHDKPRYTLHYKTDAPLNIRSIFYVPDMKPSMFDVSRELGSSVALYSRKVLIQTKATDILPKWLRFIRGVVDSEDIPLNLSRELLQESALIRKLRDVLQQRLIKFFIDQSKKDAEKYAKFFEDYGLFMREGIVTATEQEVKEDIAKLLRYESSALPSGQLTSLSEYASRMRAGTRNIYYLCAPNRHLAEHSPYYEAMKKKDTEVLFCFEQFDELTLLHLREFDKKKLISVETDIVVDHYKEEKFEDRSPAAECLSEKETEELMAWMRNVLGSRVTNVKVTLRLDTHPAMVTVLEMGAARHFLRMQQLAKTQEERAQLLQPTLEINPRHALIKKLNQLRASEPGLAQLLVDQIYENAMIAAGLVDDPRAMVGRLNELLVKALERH
Nature of the assay: ADP Glo assay of TRAP1 ATPase activity. The assay is classed as biochemical. In short, it runs like this:
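150 nM TRAP1 preincubated with compound (0.79–100 μM) 30 min at 37° C in Pipes pH 7.5 buffer (0.05 mM MgCl2, 40 mM KCl), then 20 μM ATP added for 60 min at 37° C. ADP quantified by ADP-Glo luminescence against ATP/ADP standard curve. Emax and EC50 from sigmoidal fit.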

The subject of assay [1] is primary rat dopaminergic neurons. The assay is described as follows: ROS production in primary dopaminergic TH-positive neurons injured with 6-OHDA. Format: cell-based. To be noted: injury with 6-OHDA (20 μM, 4 h); FIG. 5. As for the experimental part: Rat dopaminergic neurons were cultured as described by Visanji et al., 2008. Briefly, pregnant female rat of 15 days of gestation are sacrificed using a deep anesthesia with CO2 chamber and a cervical dislocation. The midbrains obtained from 15-day-old rat embryos are dissected under a microscope. The embryonic midbrains are removed and placed in ice-cold medium of Leibovitz (L15) containing 2% of Penicillin-Streptomycin (PS) and 1% of bovine serum albumin (BSA). The ventral portion of the mesencephalic flexure, a region of the developing brain rich in dopaminergic neurons, is used for the cell preparations.
The midbrains are dissociated by trypsinisation for 20 min at 37° C. (solution at a final concentration of 0.05% trypsin and 0.02% EDTA). The reaction is stopped by the addition of Dulbecco's modified Eagle's medium (DMEM) containing DNAase I grade II (0.5 mg/mL) and 10% of foetal calf serum (FCS). Cells are then mechanically dissociated by 3 passages through a 10 mL pipette. Cells are then centrifuged at 180×g for 10 min at +4° C. on a layer of BSA (3.5%) in L15 medium. […] Viable cells are counted in a Neubauer cytometer using the trypan blue exclusion test. […] Six wells per condition are assessed. […]

Broadly, the EC50 is the midpoint of the concentration-response curve. As usually defined, the Emax is the size of the effect at its maximum, as opposed to the concentration needed. For the compound `Cc1nn(C)c2sc(C(=O)Nc3ccc(F)c(S(=O)(=O)Nc4ccc(Cl)cc4)c3)cc12` [Compound 705], the EC50 on TRAP1 enzyme (TRAP1 ATPase activation, 150 nM Trap1, 20 μM ATP, geometric mean, read-out: ADP GLO DRC: GeoMean EC50) is 10 to 20 µM. The Emax on TRAP1 enzyme (read-out: ADP GLO DRC: Mean Emax) lay in the range of 160 to 199%. In assay [1], the “reactive oxygen species (ROS) production” value was “reduction in ROS”.
